Data published in ChEMBL document CHEMBL3861944 (Medchemcomm, 2016).

Tests used:
[1] = Cell cycle arrest in human THP1 cells assessed as accumulation at S phase at 1 uM after 24 hrs by flow cytometric method (reference value: 16 +/- 2%); assay type: functional, cell-based; settings: THP-1
[2] = Cell cycle arrest in human AsPC1 cells assessed as accumulation at G0/G1 phase at 10 uM after 24 hrs by flow cytometric method (reference value: 48 +/- 7%); assay type: functional, cell-based
[3] = Cell cycle arrest in human THP1 cells assessed as accumulation at S phase at 0.5 uM after 24 hrs by flow cytometric method (reference value: 16 +/- 2%); assay type: functional, cell-based; settings: THP-1
ASPC1 [4] = assay: Pro-apoptotic activity in human AsPC1 cells assessed as early apoptotic cells at 10 uM after 24 hrs by annexin V/propidium iodide staining-based flow cytometric method (reference value: 0.8 +/- 0.1%); assay type: functional
[5] = Cell cycle arrest in human THP1 cells assessed as accumulation at G2/M phase at 0.75 uM after 24 hrs by flow cytometric method (reference value: 32 +/- 1%); assay type: functional, cell-based; settings: THP-1
[6] = Cell cycle arrest in human THP1 cells assessed as accumulation at S phase at 30 uM after 24 hrs by flow cytometric method (reference value: 16 +/- 2%); assay type: functional, cell-based; settings: THP-1
ASPC1 [7] = assay: Pro-apoptotic activity in human AsPC1 cells assessed as late apoptotic cells at 100 uM after 24 hrs by annexin V/propidium iodide staining-based flow cytometric method (reference value: 0.8 +/- 0.1%); assay type: functional
[8] = Cell cycle arrest in human THP1 cells assessed as accumulation at S phase at 10 uM after 24 hrs by flow cytometric method (reference value: 16 +/- 2%); assay type: functional, cell-based; settings: THP-1
[9] = Cell cycle arrest in human AsPC1 cells assessed as accumulation at S phase at 75 uM after 24 hrs by flow cytometric method (reference value: 23 +/- 3%); assay type: functional, cell-based
[10] = Cell cycle arrest in human THP1 cells assessed as accumulation at G0/G1 phase at 0.75 uM after 24 hrs by flow cytometric method (reference value: 51 +/- 6%); assay type: functional, cell-based; settings: THP-1
ASPC1 [11] = assay: Pro-apoptotic activity in human AsPC1 cells assessed as late apoptotic cells at 30 uM after 24 hrs by annexin V/propidium iodide staining-based flow cytometric method (reference value: 0.8 +/- 0.1%); assay type: functional
ASPC1 [12] = assay: Pro-apoptotic activity in human AsPC1 cells assessed as late apoptotic cells at 10 uM after 24 hrs by annexin V/propidium iodide staining-based flow cytometric method (reference value: 0.8 +/- 0.1%); assay type: functional
ASPC1 [13] = assay: Pro-apoptotic activity in human AsPC1 cells assessed as necrotic cells at 75 uM after 24 hrs by annexin V/propidium iodide staining-based flow cytometric method (reference value: 2.1 +/- 0.4%); assay type: functional
ASPC1 [14] = assay: Pro-apoptotic activity in human AsPC1 cells assessed as late apoptotic cells at 75 uM after 24 hrs by annexin V/propidium iodide staining-based flow cytometric method (reference value: 0.8 +/- 0.1%); assay type: functional
[15] = Cell cycle arrest in human AsPC1 cells assessed as accumulation at G2/M phase at 30 uM after 24 hrs by flow cytometric method (reference value: 29 +/- 5%); assay type: functional, cell-based
THP-1 [16] = assay: Pro-apoptotic activity in human THP1 cells assessed as early apoptotic cells at 10 uM after 24 hrs by annexin V/propidium iodide staining-based flow cytometric method (reference value: 0.4 +/- 0.1%); assay type: functional
THP-1 [17] = assay: Pro-apoptotic activity in human THP1 cells assessed as early apoptotic cells at 30 uM after 24 hrs by annexin V/propidium iodide staining-based flow cytometric method (reference value: 0.4 +/- 0.1%); assay type: functional
ASPC1 [18] = assay: Pro-apoptotic activity in human AsPC1 cells assessed as early apoptotic cells at 100 uM after 24 hrs by annexin V/propidium iodide staining-based flow cytometric method (reference value: 0.8 +/- 0.1%); assay type: functional
[19] = Cell cycle arrest in human AsPC1 cells assessed as accumulation at G2/M phase at 100 uM after 24 hrs by flow cytometric method (reference value: 29 +/- 5%); assay type: functional, cell-based
THP-1 [20] = assay: Pro-apoptotic activity in human THP1 cells assessed as early apoptotic cells at 3 uM after 24 hrs by annexin V/propidium iodide staining-based flow cytometric method (reference value: 0.4 +/- 0.1%); assay type: functional
THP-1 [21] = assay: Pro-apoptotic activity in human THP1 cells assessed as late apoptotic cells at 3 uM after 24 hrs by annexin V/propidium iodide staining-based flow cytometric method (reference value: 0.4 +/- 0.1%); assay type: functional
THP-1 [22] = assay: Pro-apoptotic activity in human THP1 cells assessed as late apoptotic cells at 0.5 uM after 24 hrs by annexin V/propidium iodide staining-based flow cytometric method (reference value: 0.4 +/- 0.1%); assay type: functional
ASPC1 [23] = assay: Pro-apoptotic activity in human AsPC1 cells assessed as late apoptotic cells at 1 uM after 24 hrs by annexin V/propidium iodide staining-based flow cytometric method (reference value: 0.8 +/- 0.1%); assay type: functional
ASPC1 [24] = assay: Pro-apoptotic activity in human AsPC1 cells assessed as necrotic cells at 100 uM after 24 hrs by annexin V/propidium iodide staining-based flow cytometric method (reference value: 2.1 +/- 0.4%); assay type: functional
ASPC1 [25] = assay: Pro-apoptotic activity in human AsPC1 cells after 24 hrs by annexin V/propidium iodide staining-based flow cytometric method; assay type: functional; settings: ASPC1, 24 h, read-out: ED50 (the source's name)
[26] = Cell cycle arrest in human THP1 cells assessed as accumulation at G2/M phase at 10 uM after 24 hrs by flow cytometric method (reference value: 32 +/- 1%); assay type: functional, cell-based; settings: THP-1
[27] = Cell cycle arrest in human THP1 cells assessed as decrease in cell levels at G0/G1 phase after 24 hrs by flow cytometric method; assay type: functional, cell-based; settings: THP-1
THP-1 [28] = assay: Pro-apoptotic activity in human THP1 cells assessed as early apoptotic cells at 1 uM after 24 hrs by annexin V/propidium iodide staining-based flow cytometric method (reference value: 0.4 +/- 0.1%); assay type: functional
[29] = Cell cycle arrest in human AsPC1 cells assessed as accumulation at S phase at 30 uM after 24 hrs by flow cytometric method (reference value: 23 +/- 3%); assay type: functional, cell-based
THP-1 [30] = assay: Pro-apoptotic activity in human THP1 cells assessed as necrotic cells at 3 uM after 24 hrs by annexin V/propidium iodide staining-based flow cytometric method relative to control; assay type: functional
[31] = Cell cycle arrest in human AsPC1 cells assessed as accumulation at S phase at 1 uM after 24 hrs by flow cytometric method (reference value: 23 +/- 3%); assay type: functional, cell-based
THP-1 [32] = assay: Pro-apoptotic activity in human THP1 cells assessed as necrotic cells at 1 uM after 24 hrs by annexin V/propidium iodide staining-based flow cytometric method relative to control; assay type: functional
THP-1 [33] = assay: Pro-apoptotic activity in human THP1 cells assessed as necrotic cells at 30 uM after 24 hrs by annexin V/propidium iodide staining-based flow cytometric method relative to control; assay type: functional
THP-1 [34] = assay: Pro-apoptotic activity in human THP1 cells assessed as necrotic cells at 0.75 uM after 24 hrs by annexin V/propidium iodide staining-based flow cytometric method relative to control; assay type: functional
ASPC1 [35] = assay: Pro-apoptotic activity in human AsPC1 cells assessed as early apoptotic cells at 1 uM after 24 hrs by annexin V/propidium iodide staining-based flow cytometric method (reference value: 0.8 +/- 0.1%); assay type: functional

NC(=[Se])N/N=C/c1cccc2cccnc12
Activity [1]: 26% | Activity [2]: 62% | Activity [3]: 22% | Activity (ASPC1 [4]): 0.4% | Activity [5]: 34% | Activity [6]: 32% | Activity (ASPC1 [7]): 26.5% | Activity [8]: 27% | Activity [9]: 22.3% | Activity [10]: 44% | Activity (ASPC1 [11]): 1.1% | Activity (ASPC1 [12]): 0.8% | Activity (ASPC1 [13]): 4.1% | Activity (ASPC1 [14]): 4.1% | Activity [15]: 8.2% | Activity (THP-1 [16]): 6% | Activity (THP-1 [17]): 8% | Activity (ASPC1 [18]): 5.7% | Activity [19]: 17% | Activity (THP-1 [20]): 2.2% | Activity (THP-1 [21]): 3% | Activity (THP-1 [22]): 2% | Activity (ASPC1 [23]): 0.4% | Activity (ASPC1 [24]): 5.5% | EC50 (ASPC1 [25]): > 100 µM | Activity [26]: 28% | Activity [27]: Dose-dependent effect | Activity (THP-1 [28]): 1.5% | Activity [29]: 22.5% | Activity (THP-1 [30]): 0.4% | Activity [31]: 35.5% | Activity (THP-1 [32]): 0.4% | Activity (THP-1 [33]): 4% | Activity (THP-1 [34]): 0.7% | Activity (ASPC1 [35]): 0.2%
